Measured values reported in publication PMC3561402, “Signaling Pathways of ESE-16, an Antimitotic and Anticarbonic Anhydrase Estradiol Analog, in Breast Cancer Cells” (PLoS ONE, 2013).

Target: T1, carbonic anhydrase II (wild-type CAII) (Homo sapiens, UniProt P00918)
T1 construct: gene CA2
Test: […] exchange, membrane inlet mass spectrometry; Henderson tight-binding analysis
Type: biochemical

SMILES: CCc1cc2c(cc1OS(N)(=O)=O)CC[C@@H]1[C@@H]2CC[C@]2(C)C=CC[C@@H]12 [ESE-16, 2-ethyl-3-O-sulphamoyl-estra-1,3,5(10)16-tetraene]
- Ki: 569 ± 61 nM
